This note sets out measurements from ChEMBL document CHEMBL1287739, “A novel ring-expanded product with enhanced tyrosinase inhibitory activity from classical Fe-catalyzed oxidation of rosmarinic acid, a potent antioxidative Lamiaceae polyphenol” (Bioorg Med Chem Lett, 2010).

As a reminder, the inhibition is the percentage by which the read-out fell short of the control. Low readings indicate a response near the control, high ones a response far below the control. By IC50 is commonly meant the concentration that inhibits the measured activity by half.

Test [1] deals with T1, Tyrosinase (Agaricus bisporus) (UniProt O42713).
T1 sequence (whole entry): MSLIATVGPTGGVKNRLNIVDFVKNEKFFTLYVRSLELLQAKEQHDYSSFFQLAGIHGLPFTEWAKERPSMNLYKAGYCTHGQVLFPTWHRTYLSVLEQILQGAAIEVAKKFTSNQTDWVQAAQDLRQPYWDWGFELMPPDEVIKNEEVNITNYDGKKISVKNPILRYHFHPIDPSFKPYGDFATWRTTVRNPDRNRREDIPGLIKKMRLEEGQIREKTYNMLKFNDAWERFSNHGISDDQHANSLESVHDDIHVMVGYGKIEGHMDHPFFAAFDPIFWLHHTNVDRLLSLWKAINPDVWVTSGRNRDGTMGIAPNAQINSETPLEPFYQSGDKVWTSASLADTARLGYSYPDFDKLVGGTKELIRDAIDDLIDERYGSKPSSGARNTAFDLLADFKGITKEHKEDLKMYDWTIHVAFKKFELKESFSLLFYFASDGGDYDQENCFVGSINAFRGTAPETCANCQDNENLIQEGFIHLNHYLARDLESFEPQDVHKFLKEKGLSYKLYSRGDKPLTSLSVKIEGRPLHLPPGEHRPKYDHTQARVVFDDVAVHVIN
Description: Inhibition of mushroom tyrosinase at 0.10 mM.

The target in test [2] is T2, Tyrosinase (Agaricus bisporus, UniProt O42713).
T2 sequence (O42713 whole entry): T1 sequence (whole entry)
Description: Inhibition of mushroom tyrosinase.

The target of test [3] is T1, Tyrosinase (Agaricus bisporus). Description: Inhibition of mushroom tyrosinase at 10.0 mM.
The target is the same in test [4]. Description: Inhibition of mushroom tyrosinase at 3.00 mM.
For test [5] the target is unchanged. Description: Inhibition of mushroom tyrosinase at 1.00 mM.

Consider `CCOc1cc(=O)c(C[C@@H](OC(=O)/C=C/c2ccc(O)c(O)c2)C(=O)O)coc1=O`, for which the inhibition in test [1] came out at 52.5%. Moreover, the IC50 in test [2] was 80 µM.
`O=C(/C=C/c1ccc(O)c(O)c1)O[C@H](Cc1ccc(O)c(O)c1)C(=O)O` [ROSMARINIC ACID]: the inhibition in test [3] amounted to 93.6%; in test [4], 69.8%; in test [5], 40.7%. This molecule had an IC50 in test [2] of 250 µM.
